Assay results from US9580437B2, “Triazolopyrimidine compounds and uses thereof” (Novartis AG, priority 2014, dated 2017).

How the values were obtained:
[1] = molecular target: wild type PRC2 (wtPRC2) complex (Homo sapiens (Human), UniProt O75530); assay: EED LC-MS assay; assay type: biochemical; settings: read-out: (b) IC50 EED LC-MS Qualified
Description: A 6 μL solution of 3 μM of the peptide substrate H3K27Me0 (histone H3[21-44]-biotin) in reaction buffer was added to initiate each reaction. […] ELISA (H3K27 Methylation) Assay

EED (1-441)-His protein = EED (1-441)-His protein (Homo sapiens (Human), UniProt O75530); assay: EED-H3K27Me3 peptide competition binding assay by AlphaScreen; settings: read-out: (a) IC50 EED Alphascreen binding Qualified
From the text: EED-H3K27Me3 peptide competition binding assay by AlphaScreen (α-screen)

Sequence of EED (1-441)-His protein (O75530 whole entry): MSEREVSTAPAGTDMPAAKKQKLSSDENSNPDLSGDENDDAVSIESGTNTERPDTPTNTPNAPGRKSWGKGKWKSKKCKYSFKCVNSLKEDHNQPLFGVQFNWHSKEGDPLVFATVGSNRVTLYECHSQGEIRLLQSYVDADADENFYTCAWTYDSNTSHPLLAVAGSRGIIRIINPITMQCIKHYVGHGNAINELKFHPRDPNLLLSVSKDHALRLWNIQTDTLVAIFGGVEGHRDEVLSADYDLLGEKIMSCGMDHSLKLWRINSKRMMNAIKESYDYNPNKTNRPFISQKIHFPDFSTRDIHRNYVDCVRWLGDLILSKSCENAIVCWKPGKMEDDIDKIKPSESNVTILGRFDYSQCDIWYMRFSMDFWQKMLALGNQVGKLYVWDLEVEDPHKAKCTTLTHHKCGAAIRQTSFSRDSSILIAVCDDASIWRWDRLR
Sequence of wild type PRC2 (wtPRC2) complex (O75530 whole entry): as above
Sequence of wild type PRC2 (wtPRC2) complex (Q15910 whole entry partner): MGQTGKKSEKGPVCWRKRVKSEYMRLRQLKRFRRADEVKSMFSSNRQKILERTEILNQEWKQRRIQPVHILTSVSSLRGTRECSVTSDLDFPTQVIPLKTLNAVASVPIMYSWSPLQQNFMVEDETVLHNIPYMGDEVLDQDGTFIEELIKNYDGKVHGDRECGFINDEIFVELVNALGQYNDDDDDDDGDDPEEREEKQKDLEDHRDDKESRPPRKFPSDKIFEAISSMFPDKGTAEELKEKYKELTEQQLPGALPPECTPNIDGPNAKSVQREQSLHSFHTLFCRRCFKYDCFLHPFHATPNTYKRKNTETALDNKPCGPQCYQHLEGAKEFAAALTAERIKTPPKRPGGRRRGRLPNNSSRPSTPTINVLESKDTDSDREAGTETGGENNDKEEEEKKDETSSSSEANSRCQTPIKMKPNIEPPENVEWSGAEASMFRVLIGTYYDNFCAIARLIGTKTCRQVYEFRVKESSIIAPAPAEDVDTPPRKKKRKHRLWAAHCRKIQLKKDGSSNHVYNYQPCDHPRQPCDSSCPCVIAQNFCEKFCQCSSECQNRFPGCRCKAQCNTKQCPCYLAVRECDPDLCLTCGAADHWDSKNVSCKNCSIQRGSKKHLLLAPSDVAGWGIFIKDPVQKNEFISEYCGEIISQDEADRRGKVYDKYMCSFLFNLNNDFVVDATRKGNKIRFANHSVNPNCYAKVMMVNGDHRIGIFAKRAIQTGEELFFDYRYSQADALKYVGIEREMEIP
Sequence of wild type PRC2 (wtPRC2) complex (Q15022 whole entry partner): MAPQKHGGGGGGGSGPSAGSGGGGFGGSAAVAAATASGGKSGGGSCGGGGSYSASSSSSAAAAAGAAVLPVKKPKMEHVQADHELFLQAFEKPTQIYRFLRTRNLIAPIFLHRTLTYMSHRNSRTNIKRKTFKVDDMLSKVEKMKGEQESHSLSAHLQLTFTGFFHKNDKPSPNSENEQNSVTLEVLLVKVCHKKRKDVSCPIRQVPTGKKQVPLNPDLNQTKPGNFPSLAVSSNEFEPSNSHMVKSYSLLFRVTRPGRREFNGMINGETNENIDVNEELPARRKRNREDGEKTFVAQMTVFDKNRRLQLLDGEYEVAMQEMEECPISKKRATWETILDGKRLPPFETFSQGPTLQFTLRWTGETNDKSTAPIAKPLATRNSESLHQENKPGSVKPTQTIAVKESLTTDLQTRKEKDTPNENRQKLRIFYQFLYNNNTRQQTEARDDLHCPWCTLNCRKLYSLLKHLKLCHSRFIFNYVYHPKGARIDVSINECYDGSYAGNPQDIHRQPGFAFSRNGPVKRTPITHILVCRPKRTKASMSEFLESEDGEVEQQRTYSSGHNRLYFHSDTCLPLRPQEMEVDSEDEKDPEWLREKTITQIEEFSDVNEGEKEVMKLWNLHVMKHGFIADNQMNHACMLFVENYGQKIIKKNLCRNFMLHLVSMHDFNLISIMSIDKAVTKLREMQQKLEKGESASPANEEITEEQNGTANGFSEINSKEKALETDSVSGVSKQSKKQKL

Structure (SMILES) | IC50 [1] | IC50 (EED (1-441)-His protein)
Fc1ccc2c(c1CNc1ncc(-c3ccc(Cl)cc3Cl)c3nncn13)CCO2 [Example 146, 8-(2,4-dichlorophenyl)-N-((5-fluoro-2,3-dihydrobenzofuran-4-yl)methyl)-[1,2,4]triazolo[4,3-c]pyrimidin-5-amine] | 38.2 nM | 23 nM
Cn1cc(-c2cnc(NCc3c(F)ccc4c3CCO4)n3cnnc23)cn1 [Example 147, N-((5-fluoro-2,3-dihydrobenzofuran-4-yl)methyl)-8-(1-methyl-1H-pyrazol-4-yl)-[1,2,4]triazolo[4,3-c]pyrimidin-5-amine] | 15.9 nM | 3.6 nM
CC(C)n1cc(-c2cnc(NCc3c(F)ccc4c3CCO4)n3cnnc23)c(C(F)(F)F)n1 [Example 148, N-((5-fluoro-2,3-dihydrobenzofuran-4-yl)methyl)-8-(1-isopropyl-3-(trifluoromethyl)-1H-pyrazol-4-yl)-[1,2,4]triazolo[4,3-c]pyrimidin-5-amine] | 18 nM | 5.2 nM
c1cc(CNc2ncc(-c3cnn(C4CC4)c3)c3nncn23)c2c(c1)OCC2 [Example 149, 8-(1-cyclopropyl-1H-pyrazol-4-yl)-N-((2,3-dihydrobenzofuran-4-yl)methyl)-[1,2,4]triazolo[4,3-c]pyrimidin-5-amine] | 33.7 nM | 16.9 nM
Fc1ccc2c(c1CNc1ncc(-c3cnn(C4CC4)c3)c3nncn13)CCO2 [Example 150, 8-(1-cyclopropyl-1H-pyrazol-4-yl)-N-((5-fluoro-2,3-dihydrobenzofuran-4-yl)methyl)-[1,2,4]triazolo[4,3-c]pyrimidin-5-amine] | 7 nM | 4.5 nM
Cc1nn(C(C)C)c(C)c1-c1cnc(NCc2c(F)ccc3c2CCO3)n2cnnc12 [Example 151, N-((5-fluoro-2,3-dihydrobenzofuran-4-yl)methyl)-8-(1-isopropyl-3,5-dimethyl-1H-pyrazol-4-yl)-[1,2,4]triazolo[4,3-c]pyrimidin-5-amine] | 21.6 nM | 13.1 nM
Cn1nccc1-c1cnc(NCc2cccc3c2CCO3)n2cnnc12 [Example 152, N-((2,3-dihydrobenzofuran-4-yl)methyl)-8-(1-methyl-1H-pyrazol-5-yl)-[1,2,4]triazolo[4,3-c]pyrimidin-5-amine] | 6.9 nM | 5.5 nM
Cc1nn(C(C)C)c(C)c1-c1cnc(NCc2cccc3c2CCO3)n2cnnc12 [Example 153, N-((2,3-dihydrobenzofuran-4-yl)methyl)-8-(1-isopropyl-3,5-dimethyl-1H-pyrazol-4-yl)-[1,2,4]triazolo[4,3-c]pyrimidin-5-amine] | 14.8 nM | 7.8 nM
FC(F)c1ccc(-c2cnc(NCc3cccc4c3CCO4)n3cnnc23)cn1 [Example 154, 8-(6-(difluoromethyl)pyridin-3-yl)-N-((2,3-dihydrobenzofuran-4-yl)methyl)-[1,2,4]triazolo[4,3-c]pyrimidin-5-amine] | 36.9 nM | 20.1 nM
Fc1ccc(-c2cnc(NCc3c(F)ccc4c3CCO4)n3cnnc23)c(Cl)c1 [Example 157, 8-(2-chloro-4-fluorophenyl)-N-((5-fluoro-2,3-dihydrobenzofuran-4-yl)methyl)-[1,2,4]triazolo[4,3-c]pyrimidin-5-amine] | 46.3 nM | 22.3 nM
Cc1nn(CCO)c(C)c1-c1cnc(NCc2c(F)ccc3c2CCO3)n2cnnc12 [Example 158, 2-(4-(5-(((5-fluoro-2,3-dihydrobenzofuran-4-yl)methyl)amino)-[1,2,4]triazolo[4,3-c]pyrimidin-8-yl)-3,5-dimethyl-1H-pyrazol-1-yl)ethanol] | 9.6 nM | 5.1 nM
COCCn1nc(C)c(-c2cnc(NCc3c(F)ccc4c3CCO4)n3cnnc23)c1C [Example 159, N-((5-fluoro-2,3-dihydrobenzofuran-4-yl)methyl)-8-(1-(2-methoxyethyl)-3,5-dimethyl-1H-pyrazol-4-yl)-[1,2,4]triazolo[4,3-c]pyrimidin-5-amine] | 10.3 nM | 5 nM
Fc1ccc2c(c1CNc1ncc(-c3ccc(C(F)(F)F)nc3)c3nncn13)CCO2 [Example 160, N-((5-fluoro-2,3-dihydrobenzofuran-4-yl)methyl)-8-(6-(trifluoromethyl)pyridin-3-yl)-[1,2,4]triazolo[4,3-c]pyrimidin-5-amine] | 11.3 nM | 5.9 nM
Fc1ccc2c(c1CNc1ncc(-c3ccncc3Cl)c3nncn13)CCO2 [Example 162, 8-(3-chloropyridin-4-yl)-N-((5-fluoro-2,3-dihydrobenzofuran-4-yl)methyl)-[1,2,4]triazolo[4,3-c]pyrimidin-5-amine] | 21.1 nM | 5.7 nM
Cc1cc(F)ccc1-c1cnc(NCc2c(F)ccc3c2CCO3)n2cnnc12 [Example 165, N-((5-fluoro-2,3-dihydrobenzofuran-4-yl)methyl)-8-(4-fluoro-2-methylphenyl)-[1,2,4]triazolo[4,3-c]pyrimidin-5-amine] | 7.4 nM | 4.5 nM
Fc1ccc2c(c1CNc1ncc(-c3cccnc3C(F)F)c3nncn13)CCO2 [Example 168, 8-(2-(difluoromethyl)pyridin-3-yl)-N-((5-fluoro-2,3-dihydrobenzofuran-4-yl)methyl)-[1,2,4]triazolo[4,3-c]pyrimidin-5-amine] | 11.2 nM | 4.6 nM
Cn1nccc1-c1cnc(NCc2c(F)ccc3c2CCO3)n2cnnc12 [Example 169, N-((5-fluoro-2,3-dihydrobenzofuran-4-yl)methyl)-8-(1-methyl-1H-pyrazol-5-yl)-[1,2,4]triazolo[4,3-c]pyrimidin-5-amine] | 6.6 nM | 4.5 nM
Cn1cc(-c2cnc(NCc3c(F)ccc4c3CCO4)n3cnnc23)c(C(F)(F)F)n1 [Example 170, N-((5-fluoro-2,3-dihydrobenzofuran-4-yl)methyl)-8-(1-methyl-3-(trifluoromethyl)-1H-pyrazol-4-yl)-[1,2,4]triazolo[4,3-c]pyrimidin-5-amine] | 12.1 nM | 10.7 nM
CC(=O)NCc1ccc(-c2cnc(NCc3c(F)ccc4c3CCO4)n3cnnc23)cn1 [Example 171, N-((5-(5-(((5-fluoro-2,3-dihydrobenzofuran-4-yl)methyl)amino)-[1,2,4]triazolo[4,3-c]pyrimidin-8-yl)pyridin-2-yl)methyl)acetamide] | 7.3 nM | 6 nM
Cc1cc(C2CC2)ncc1-c1cnc(NCc2c(F)ccc3c2CCO3)n2cnnc12 [Example 173, 8-(6-cyclopropyl-4-methylpyridin-3-yl)-N-((5-fluoro-2,3-dihydrobenzofuran-4-yl)methyl)-[1,2,4]triazolo[4,3-c]pyrimidin-5-amine] | 7.7 nM | 7.5 nM

Further lines, results first:

IC50 [1] | IC50 (EED (1-441)-His protein) | Structure (SMILES)
45.3 nM | 17 nM | COc1ccc(-c2cnc(NCc3c(F)ccc4c3CCO4)n3cnnc23)c(C)n1 [Example 155, N-((5-fluoro-2,3-dihydrobenzofuran-4-yl)methyl)-8-(6-methoxy-2-methylpyridin-3-yl)-[1,2,4]triazolo[4,3-c]pyrimidin-5-amine]
17.3 nM | 4 nM | Cc1nc(N)ccc1-c1cnc(NCc2c(F)ccc3c2CCO3)n2cnnc12 [Example 156, 8-(6-amino-2-methylpyridin-3-yl)-N-((5-fluoro-2,3-dihydrobenzofuran-4-yl)methyl)-[1,2,4]triazolo[4,3-c]pyrimidin-5-amine]
9.8 nM | 3.6 nM | COc1cc(F)c(-c2cnc(NCc3c(F)ccc4c3CCO4)n3cnnc23)cn1 [Example 161, N-((5-fluoro-2,3-dihydrobenzofuran-4-yl)methyl)-8-(4-fluoro-6-methoxypyridin-3-yl)-[1,2,4]triazolo[4,3-c]pyrimidin-5-amine]
10.9 nM | 4.1 nM | Cc1cnccc1-c1cnc(NCc2c(F)ccc3c2CCO3)n2cnnc12 [Example 163, N-((5-fluoro-2,3-dihydrobenzofuran-4-yl)methyl)-8-(3-methylpyridin-4-yl)-[1,2,4]triazolo[4,3-c]pyrimidin-5-amine]
13.9 nM | 4.2 nM | Cc1nc(F)ccc1-c1cnc(NCc2c(F)ccc3c2CCO3)n2cnnc12 [Example 164, N-((5-fluoro-2,3-dihydrobenzofuran-4-yl)methyl)-8-(6-fluoro-2-methylpyridin-3-yl)-[1,2,4]triazolo[4,3-c]pyrimidin-5-amine]
5.2 nM | 3.3 nM | Cc1ccc(-c2cnc(NCc3c(F)ccc4c3CCO4)n3cnnc23)c(C)n1 [Example 167, 8-(2,6-dimethylpyridin-3-yl)-N-((5-fluoro-2,3-dihydrobenzofuran-4-yl)methyl)-[1,2,4]triazolo[4,3-c]pyrimidin-5-amine]
7.1 nM | 6.6 nM | Cc1c(-c2cnc(NCc3c(F)ccc4c3CCO4)n3cnnc23)cnn1C [Example 172, 8-(1,5-dimethyl-1H-pyrazol-4-yl)-N-((5-fluoro-2,3-dihydrobenzofuran-4-yl)methyl)-[1,2,4]triazolo[4,3-c]pyrimidin-5-amine]
6.2 nM | 4.7 nM | COc1ncc(-c2cnc(NCc3c(F)ccc4c3CCO4)n3cnnc23)cn1 [Example 174, N-((5-fluoro-2,3-dihydrobenzofuran-4-yl)methyl)-8-(2-methoxypyrimidin-5-yl)-[1,2,4]triazolo[4,3-c]pyrimidin-5-amine]
9.2 nM | 6.3 nM | COc1ncc(-c2cnc(NCc3c(F)ccc4c3CCO4)n3cnnc23)c(C)n1 [Example 175, N-((5-fluoro-2,3-dihydrobenzofuran-4-yl)methyl)-8-(2-methoxy-4-methylpyrimidin-5-yl)-[1,2,4]triazolo[4,3-c]pyrimidin-5-amine]
8.3 nM | 5.9 nM | Cc1ncncc1-c1cnc(NCc2c(F)ccc3c2CCO3)n2cnnc12 [Example 176, N-((5-fluoro-2,3-dihydrobenzofuran-4-yl)methyl)-8-(4-methylpyrimidin-5-yl)-[1,2,4]triazolo[4,3-c]pyrimidin-5-amine]
